Key:
Assay in all cases: fitness (endpoint OD595 vs no drug) (fraction); higher = more growth
[1] = system: S. aureus DSM 20231
Summary of the method: (§1)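 Plates with 384 wells were inoculated at OD595 0.01 using 30 µl of TSB, LB Lennox or CY, or 55 µl for S. pneumoniae. Incubation was at 37 °C, with OD595 measured every 30 min for 14 h. Fitness is the stationary-phase transition optical density over the robust mean of no-drug control wells, after first-reading background subtraction; it is capped at 1.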

[2] = system: S. aureus Newman
Summary of the method: as §1

[3] = system: B. subtilis 168
Summary of the method: as §1

N[C@@H]1CONC1=O [Cycloserine D] + COc1c(N2C[C@@H]3CCCN[C@@H]3C2)c(F)cc2c(=O)c(C(=O)O)cn(C3CC3)c12 [Moxifloxacin]
fitness
Settings	first compound 0.125 µg/mL	first compound 0.25 µg/mL	first compound 0.375 µg/mL	first compound 0.5 µg/mL	first compound 0.75 µg/mL	first compound 1.5 µg/mL
[1], partner 0.0075 µg/mL	–	–	0.827	–	0.85	0.844
[1], partner 0.015 µg/mL	–	–	0.713	–	0.712	0.687
[1], partner 0.03 µg/mL	–	–	0.575	–	0.586	0.564
[2], partner 0.0075 µg/mL	–	–	0.761	–	0.753	0.705
[2], partner 0.015 µg/mL	–	–	0.599	–	0.552	0.586
[2], partner 0.03 µg/mL	–	–	0.119	–	0.0631	0.06
[3], partner 0.0312 µg/mL	0.0481	0.0489	–	0.0432	–	–
[3], partner 0.0625 µg/mL	0.033	0.034	–	0.028	–	–
[3], partner 0.125 µg/mL	0.0229	0.0218	–	0.03	–	–
[3], partner 2 µg/mL	0.0539	0.0355	–	0.0265	–	–
[3], partner 4 µg/mL	0.0542	0.0318	–	0.0298	–	–
[3], partner 8 µg/mL	0.04	0.0429	–	0.0319	–	–

fitness, [1], one replicate
Settings	first compound 0.375 µg/mL	first compound 0.75 µg/mL	first compound 1.5 µg/mL
partner 0.06 µg/mL	0.658	0.656	0.654
partner 0.12 µg/mL	0.483	0.518	0.483

N[C@@H]1CONC1=O [Cycloserine D] + COc1ccc(C[C@H](N)C(=O)N[C@H]2[C@@H](O)[C@H](n3cnc4c(N(C)C)ncnc43)O[C@@H]2CO)cc1 [Puromycin]
fitness
Settings	first compound 0.125 µg/mL	first compound 0.25 µg/mL	first compound 0.375 µg/mL	first compound 0.5 µg/mL	first compound 0.75 µg/mL	first compound 1.5 µg/mL
[1], partner 0.39 µg/mL	–	–	≥ 1	–	≥ 1	≥ 1
[1], partner 0.78 µg/mL	–	–	≥ 1	–	≥ 1	≥ 1
[1], partner 1.56 µg/mL	–	–	1	–	≥ 1	≥ 1
[2], partner 0.39 µg/mL	–	–	≥ 1	–	≥ 1	≥ 1
[2], partner 0.78 µg/mL	–	–	0.999	–	0.977	0.989
[2], partner 1.56 µg/mL	–	–	≥ 1	–	0.998	≥ 1
[3], partner 0.39 µg/mL	0.958	0.889	–	0.955	–	–
[3], partner 0.78 µg/mL	0.931	0.894	–	0.968	–	–
[3], partner 1.56 µg/mL	0.959	0.929	–	0.915	–	–

fitness, [1], one replicate
Settings	first compound 0.375 µg/mL	first compound 0.75 µg/mL	first compound 1.5 µg/mL
partner 3.12 µg/mL	≥ 1	≥ 1	0.977
partner 6.24 µg/mL	0.748	0.718	0.687

N[C@@H]1CONC1=O [Cycloserine D] + COc1cccc2c1C(=O)c1c(O)c3c(c(O)c1C2=O)C[C@@](O)(C(=O)CO)C[C@@H]3O[C@H]1C[C@H](N)[C@H](O)[C@H](C)O1 [Doxorubicin]
fitness
Settings	first compound 0.125 µg/mL	first compound 0.25 µg/mL	first compound 0.375 µg/mL	first compound 0.5 µg/mL	first compound 0.75 µg/mL	first compound 1.5 µg/mL
[1], partner 0.625 µg/mL	–	–	0.942	–	0.898	0.905
[1], partner 1.25 µg/mL	–	–	0.867	–	0.891	0.953
[1], partner 2.5 µg/mL	–	–	0.861	–	0.841	0.774
[2], partner 0.625 µg/mL	–	–	0.796	–	0.809	0.827
[2], partner 1.25 µg/mL	–	–	0.797	–	0.797	0.799
[2], partner 2.5 µg/mL	–	–	0.748	–	0.75	0.771
[3], partner 0.625 µg/mL	0.976	0.959	–	0.921	–	–
[3], partner 1.25 µg/mL	0.919	0.939	–	0.891	–	–
[3], partner 2.5 µg/mL	0.754	0.704	–	0.722	–	–
